We go through seven compounds from patent US5270312A, “Substituted piperazines as central nervous system agents” (Warner-Lambert Company, priority 1991, dated 1993).

Broadly, the IC50 is the midpoint of a concentration-inhibition curve. A low value points to higher potency. A word on the ED50: it is the dose that gives a 50% effect, or the effect in half of the subjects. Read a low ED50 as greater potency.

In assay [1] the test system is brain dopamine synthesis in rats. Description: Reversal of brain dopamine synthesis in rats (inhibition of dopamine synthesis). As to conditions: 10 mg/kg, IP. Type of assay: in vivo. Here is the method: (§1) The compounds of Formula I are valuable dopaminergic agents. […] Thus, the compounds of Formula I were tested for their ability to inhibit locomotor activity in mice according to the assay described by J. R. McLean, et al, Pharmacology, Biochemistry and Behavior, Volume 8, pages 97-99 (1978); for their ability to inhibit [^3 H]-spiroperidol binding in a receptor assay described by D. Grigoriadis and P. Seeman, Journal of Neurochemistry, Volume 44, pages 1925-1935 (1985); and for their ability to inhibit dopamine synthesis in rats according to the protocol described by J. R. Walters and R. H. Roth, Naunyn-Schmiedeberg's Archives of Pharmacology, Volume 296, pages 5-14 (1976). The above test methods are incorporated herein by reference. The data in the table show the dopaminergic activity of representative compounds of Formula 1.

In assay [2] the target is [^3 H]-spiroperidol binding (receptor assay). Description: Inhibition of [^3 H]spiroperidol binding, receptor assay. As for the experimental part: as §1
Assay [3] has as its system locomotor activity in mice. In words: Inhibition of locomotor activity in mice. It is filed as in vivo. As to conditions: Mus musculus, IP. Here is the method:
as §1

Consider `Nc1ccc(C#CCCN2CCN(c3ccccn3)CC2)cc1` [Example 8, 4-[4-[4-(2-Pyridinyl)-1-piperazinyl]-1-butynyl]-benzenamine], for which the “% Reversal of Brain Dopamine Synthesis in Rats” value (from here on “% Reversal”) in assay [1] is recorded as 63%. In assay [2], the IC50 was 0.611 µM. In assay [3], this compound came in with an ED50 of 0.56 mg/kg.

Compound `O=[N+]([O-])c1ccc(C#CCCN2CCN(c3ccccn3)CC2)nc1` [Example 5, 1-[4-(5-Nitro-2-pyridinyl)-3-butynyl]-4-(2-pyridinyl)piperazine] yielded an IC50 in assay [2] above 10 µM. Besides, the 50% effective dose (ED50) in assay [3] was determined as 14.1 mg/kg.

Compound `C(#Cc1cnc2ccccc2c1)CCN1CCN(c2ccccn2)CC1` [Example 1, 3-[4-[4-(2-Pyridinyl)-1-piperazinyl]-1-butynyl]-quinoline] had an IC50 in assay [2] of 0.177 µM. In assay [3], the ED50 was determined as 1.5 mg/kg.

As to `Fc1ccc(N2CCN(CCC#Cc3cccnc3)CC2)cc1` [Example 2, 1-(4-Fluorophenyl)-4-[4-(3-pyridinyl)-3-butynyl]-piperazine], the “% Reversal” value in assay [1] is reported as 20%. In assay [2], this compound yielded an IC50 of 2.33 µM. Besides, the ED50 in assay [3] came to 4.7 mg/kg.

Take `Nc1ccc(C#CCCN2CCN(c3ccccn3)CC2)nc1` [Example 7, 6-[4-[4-(2-Pyridinyl)-1-piperazinyl]-1-butynyl]-3-pyridinamine]: in assay [1], the “% Reversal” value was determined as 24%. In addition, the IC50 in assay [2] worked out at 1.9 µM. It took a dose of 0.35 mg/kg to reach the 50% effect level in assay [3] (ED50).

As to `C(#Cc1cccnc1)CCN1CCN(c2ccccn2)CC1` [Example 3, 1-(2-Pyridinyl)-4-[4-(3-pyridinyl)-3-butynyl]-piperazine], the 50% inhibitory concentration (IC50) in assay [2] was determined as 6.53 µM. For the same compound, in assay [3], the ED50 was 2.2 mg/kg.

`O=[N+]([O-])c1ccc(C#CCCN2CCN(c3ccccn3)CC2)cc1` [Example 6, 1-[4-(4-Nitrophenyl)-3-butynyl]-4-(2-pyridinyl)-piperazine]: in assay [2], the IC50 came to 2.5 µM. For the same compound, it took a dose of 7.7 mg/kg to reach the 50% effect level in assay [3] (ED50).
